The values below come from US20130252930A1 (BIOMARIN PHARMACEUTICAL INC., priority 2010, published 2013).

Read-outs that look alike come from different tables or passages of the source.

Assay [1] addresses T1, Cyp21 enzyme (Human HEK 293-Cyp21 stable transfected cells) (Homo sapiens, UniProt P08686).
T1 construct: expressed in transfected cells
T1 sequence (P08686 1-495): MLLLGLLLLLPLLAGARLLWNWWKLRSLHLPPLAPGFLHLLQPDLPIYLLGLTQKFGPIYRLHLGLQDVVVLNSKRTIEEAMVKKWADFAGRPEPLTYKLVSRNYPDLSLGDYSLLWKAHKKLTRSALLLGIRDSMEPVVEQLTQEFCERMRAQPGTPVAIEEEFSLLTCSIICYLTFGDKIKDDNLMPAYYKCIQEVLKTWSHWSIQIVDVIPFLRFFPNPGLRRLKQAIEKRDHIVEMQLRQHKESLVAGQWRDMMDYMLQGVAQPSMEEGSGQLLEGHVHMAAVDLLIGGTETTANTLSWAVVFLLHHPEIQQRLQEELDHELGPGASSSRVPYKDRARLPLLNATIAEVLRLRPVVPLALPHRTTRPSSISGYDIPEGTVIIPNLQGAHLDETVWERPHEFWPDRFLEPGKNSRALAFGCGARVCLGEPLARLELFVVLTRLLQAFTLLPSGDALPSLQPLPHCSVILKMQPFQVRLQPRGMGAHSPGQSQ
The assay can be described thus: CYP21-HEK293 enzymatic assay (IC50) (Biological Example 11). The assay is classed as cell-based. As to conditions: HEK 293-Cyp21 cells.

Assay [2] has as its target T2, CYP17 (human testicular microsome) (Homo sapiens, UniProt P05093).
T2 construct: using microsomal fraction from human testis (Celsis Cat #S00110) as the enzyme source; tissue Celsis S00110; host or cells: human testis microsomal fraction
T2 sequence (P05093 1-508): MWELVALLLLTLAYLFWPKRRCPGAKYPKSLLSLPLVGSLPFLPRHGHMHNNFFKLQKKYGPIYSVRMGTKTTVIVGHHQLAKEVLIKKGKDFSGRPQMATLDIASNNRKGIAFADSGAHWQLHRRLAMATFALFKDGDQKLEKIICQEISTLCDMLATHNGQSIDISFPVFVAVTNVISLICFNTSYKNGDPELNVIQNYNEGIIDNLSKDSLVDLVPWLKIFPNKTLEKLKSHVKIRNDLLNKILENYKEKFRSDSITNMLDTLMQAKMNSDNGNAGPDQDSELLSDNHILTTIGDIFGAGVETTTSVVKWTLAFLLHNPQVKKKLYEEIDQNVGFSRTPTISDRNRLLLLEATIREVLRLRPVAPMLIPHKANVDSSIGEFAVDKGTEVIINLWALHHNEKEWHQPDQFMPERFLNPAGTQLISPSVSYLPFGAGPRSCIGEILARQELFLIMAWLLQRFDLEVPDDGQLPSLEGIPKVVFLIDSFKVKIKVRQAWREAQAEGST
The experiment in a line: CYP17 enzymatic assay (% inhibition at 1 nM) (Biological Example 12). Type of assay: biochemical. As to conditions: compound at 1 nM.

The mark [3] stands for this setting: read-out: Biological Example No. 11: CYP21-HEK293 enzymatic assay IC50.
Setting [4] is: read-out: Biological Example No. 12: CYP17 enzymatic assay % inhibition at 1 nM.
The mark [5] stands for this setting: read-out: CYP21-HEK293 enzymatic assay IC50 (Biological Example No. 11).
Setting [6] is: read-out: CYP17 enzymatic assay % inhibition at 1 nM (Biological Example No. 12).

With `C[C@]12CCC(=O)C=C1C(C1CC1)C[C@@H]1[C@@H]2CC[C@]2(C)C(c3cncc(F)c3)=CC[C@@H]12` (stereo partly drawn) [Compound 331, (10R,13S)-6-cyclopropyl-17-(5-fluoropyridin-3-yl)-10,13-dimethyl-6,7,8,9,10,11,12,13,14,15-decahydro-1H-cyclopenta[a]phenanthren-3(2H)-one], the half-maximal inhibitory concentration (IC50) in assay [1] (setting [3]) was > 1000 nM. For the same compound, in assay [2] (setting [4]), the inhibition at 0.001 µM was in the range of 10 to 50%.
As for `C[C@]12CCC3C(CC=C4C=CCC[C@@]43C)C1=CC=C2c1cccnc1` (stereo partly drawn) [Compound 197, 3-((10R,13S)-10,13-dimethyl-2,7,8,9,10,11,12,13-octahydro-1H-cyclopenta[a]phenanthren-17-yl)pyridine], the IC50 in assay [1] (setting [5]) is > 1000 nM. Moreover, the inhibition at 0.001 µM in assay [2] (setting [6]) was 10 to 50%.
As for `C[C@]12CCC3C(CCC4=CC(=O)CC[C@@]43C)C1=CC=C2c1ccc(F)nc1` (stereo partly drawn) [Compound 355, (10R,13S)-17-(6-fluoropyridin-3-yl)-10,13-dimethyl-6,7,8,9,10,11,12,13-octahydro-1H-cyclopenta[a]phenanthren-3(2H)-one], the IC50 in assay [1] (setting [3]) was > 1000 nM. Besides, the inhibition at 0.001 µM in assay [2] (setting [4]) was 10 to 50%.
On the same counts, the results for `CC1CC2C3=CC=C(c4ccc(F)nc4)[C@@]3(C)CCC2[C@@]2(C)CCC(=O)C=C12` (stereo partly drawn) [Compound 326, (10R,13S)-17-(6-fluoropyridin-3-yl)-6,10,13-trimethyl-6,7,8,9,10,11,12,13-octahydro-1H-cyclopenta[a]phenanthren-3(2H)-one] are > 1000 nM and 10 to 50%.
For `CCC1CC2C(CC[C@]3(C)C(c4cncc(F)c4)=CCC23)[C@@]2(C)CCC(=O)C=C12` (stereo partly drawn) [Compound 333, (10R,13S)-6-ethyl-17-(5-fluoropyridin-3-yl)-10,13-dimethyl-6,7,8,9,10,11,12,13,14,15-decahydro-1H-cyclopenta[a]phenanthren-3(2H)-one], in that order: > 1000 nM and < 10%.
For `CC1CC2C3=CC=C(c4cncc(C(F)F)c4)[C@@]3(C)CCC2[C@@]2(C)CCC(=O)C=C12` (stereo partly drawn) [Compound 328, (10R,13S)-17-(5-(difluoromethyl)pyridin-3-yl)-6,10,13-trimethyl-6,7,8,9,10,11,12,13-octahydro-1H-cyclopenta[a]phenanthren-3(2H)-one], in that order: > 1000 nM and < 10%.
For the compound `Cc1cnc(F)c(C2=CCC3C4CCC5=CC(=O)CC[C@]5(C)C4CC[C@]23C)c1` (stereo partly drawn) [Compound 356, (10R,13S)-17-(2-fluoro-5-methylpyridin-3-yl)-10,13-dimethyl-6,7,8,9,10,11,12,13,14,15-decahydro-1H-cyclopenta[a]phenanthren-3(2H)-one], the IC50 in assay [1] (setting [3]) is > 1000 nM. For the same compound, the inhibition at 0.001 µM in assay [2] (setting [4]) is 10 to 50%.
Turning to `CC1CC2C(CC[C@]3(C)C(c4cncc(C(F)F)c4)=CCC23)[C@@]2(C)CCC(=O)C=C12` (stereo partly drawn) [Compound 341, (10R,13S)-17-(5-(difluoromethyl)pyridin-3-yl)-6,10,13-trimethyl-6,7,8,9,10,11,12,13,14,15-decahydro-1H-cyclopenta[a]phenanthren-3(2H)-one], in assay [1] (setting [3]), the IC50 is > 1000 nM. Besides, the inhibition at 0.001 µM in assay [2] (setting [4]) lay within 10 to 50%.
As to `C[C@]12CCC(=O)C=C1C(n1nccn1)CC1C2CC[C@]2(C)C(c3cccnc3)=CCC12` (stereo partly drawn) [Compound 336, (10R,13S)-10,13-dimethyl-17-(pyridin-3-yl)-6-(2H-1,2,3-triazol-2-yl)-6,7,8,9,10,11,12,13,14,15-decahydro-1H-cyclopenta[a]phenanthren-3(2H)-one], the half-maximal inhibitory concentration (IC50) in assay [1] (setting [3]) is > 1000 nM. Also, in assay [2] (setting [4]), the inhibition at 0.001 µM was < 10%.
Turning to `C[C@]12CC[C@H]3[C@@H](CC(C4CC4)C4=CC(=O)CC[C@@]43C)C1=CC=C2c1cccnc1` (stereo partly drawn) [Compound 343, (10R,13S)-6-cyclopropyl-10,13-dimethyl-17-(pyridin-3-yl)-6,7,8,9,10,11,12,13-octahydro-1H-cyclopenta[a]phenanthren-3(2H)-one], the IC50 in assay [1] (setting [3]) is > 100 nM. Moreover, the inhibition at 0.001 µM in assay [2] (setting [4]) lay in the range of 10 to 50%.
On the same counts, the results for `CC1C[C@@H]2[C@H](CC[C@]3(C)C(c4cncc(C(F)F)c4)=CC[C@@H]23)[C@@]2(C)C=CC(=O)C=C12` (stereo partly drawn) [Compound 346, (10R,13S)-17-(5-(difluoromethyl)pyridin-3-yl)-6,10,13-trimethyl-6,7,8,9,10,11,12,13,14,15-decahydro-3H-cyclopenta[a]phenanthren-3-one] are > 1000 nM and 10 to 50%.
For `CCC1CC2C(CC[C@]3(C)C(c4cncc(C(F)F)c4)=CCC23)[C@@]2(C)CCC(=O)C=C12` (stereo partly drawn) [Compound 334, (10R,13S)-17-(5-(difluoromethyl)pyridin-3-yl)-6-ethyl-10,13-dimethyl-6,7,8,9,10,11,12,13,14,15-decahydro-1H-cyclopenta[a]phenanthren-3(2H)-one], in that order: > 1000 nM and < 10%.
In the case of `C[C@]12CCC(=NO)C=C1C1(CC1)C[C@@H]1[C@@H]2CC[C@]2(C)C(c3cccnc3)=CC[C@@H]12` [Compound 362, (6cR,8aS)-10,13-dimethyl-17-(pyridin-3-yl)-1,7,8,9,10,11,12,13,14,15-decahydrospiro[cyclopenta[a]phenanthrene-6,1′-cyclopropan]-3(2H)-one oxime], the concentration for half-maximal inhibition (IC50) in assay [1] (setting [3]) was > 100 nM. Besides, the inhibition at 0.001 µM in assay [2] (setting [4]) lay within 10 to 50%.
`C[C@]12CCC3C(CCC4=CC(=O)CC[C@@]43C)C1=CC=C2c1cncc(Cl)c1` (stereo partly drawn) [Compound 359, (10R,13S)-17-(5-chloropyridin-3-yl)-10,13-dimethyl-6,7,8,9,10,11,12,13-octahydro-1H-cyclopenta[a]phenanthren-3(2H)-one]: the IC50 in assay [1] (setting [3]) is > 1000 nM. For the same compound, the inhibition at 0.001 µM in assay [2] (setting [4]) lay in the range of 10 to 50%.
On to `C[C@]12C=CC(=NO)C=C1C1(CC1)C[C@@H]1[C@@H]2CC[C@]2(C)C(c3cccnc3)=CC[C@@H]12` [Compound 365, (6cR,8aS)-10,13-dimethyl-17-(pyridin-3-yl)-7,8,9,11,12,13,14,15-octahydrospiro[cyclopenta[a]phenanthrene-6,1′-cyclopropan]-3(10H)-one oxime], for which, in assay [1] (setting [3]), the IC50 was > 100 nM. For the same compound, the inhibition at 0.001 µM in assay [2] (setting [4]) lay in the range of 10 to 50%.
With `CC1CC2C(CC[C@]3(C)C(c4cccnc4)=CCC23)[C@@]2(C)C=CC(=NO)C=C12` (stereo partly drawn) [Compound 367, (10R,13S)-6,10,13-trimethyl-17-(pyridin-3-yl)-6,7,8,9,10,11,12,13,14,15-decahydro-3H-cyclopenta[a]phenanthren-3-one oxime], the IC50 in assay [1] (setting [3]) is > 1000 nM. The inhibition at 0.001 µM in assay [2] (setting [4]) lay in the range of 10 to 50%.
As to `C[C@]12CCC3C(CCC45CC4NC(=O)CC[C@]35C)C1CC=C2c1cccnc1` (stereo partly drawn) [Compound 387, (5aR,7aS)-5a,7a-dimethyl-8-(pyridin-3-yl)-1a,2,4,5,5a,5b,6,7,7a,10,10a,10b,11,12-tetradecahydrocyclopenta[5,6]naphtho[2,1-c]cyclopropa[b]azepin-3(1H)-one], the IC50 in assay [1] (setting [3]) was > 1000 nM. Also, the inhibition at 0.001 µM in assay [2] (setting [4]) is < 10%.
Regarding `Cc1cccc(C)c1C(=O)O[C@@H]1CC[C@@]2(C)C(=CCC3C4=CC=C(c5cccnc5)[C@@]4(C)CCC32)C1` (stereo partly drawn) [Compound 198, (3R,10R,13S)-10,13-dimethyl-17-(pyridin-3-yl)-2,3,4,7,8,9,10,11,12,13-decahydro-1H-cyclopenta[a]phenanthren-3-yl 2,6-dimethylbenzoate], the IC50 in assay [1] (setting [5]) was > 1000 nM. The inhibition at 0.001 µM in assay [2] (setting [6]) is < 10%.
With `C[C@]12CCC(=O)C=C1C(c1ccccc1)CC1C2CC[C@]2(C)C(c3cncc(F)c3)=CCC12` (stereo partly drawn) [Compound 337, (10R,13S)-17-(5-fluoropyridin-3-yl)-10,13-dimethyl-6-phenyl-6,7,8,9,10,11,12,13,14,15-decahydro-1H-cyclopenta[a]phenanthren-3(2H)-one], in assay [1] (setting [3]), the IC50 is > 1000 nM. In assay [2] (setting [4]), the inhibition at 0.001 µM is < 10%.
In the case of `C[C@]12CCC(=O)C=C1CCC1C2CC[C@]2(C)C(c3cncc(C(F)F)c3)=CCC12` (stereo partly drawn) [Compound 479, (10R,13S)-17-(5-(difluoromethyl)pyridin-3-yl)-10,13-dimethyl-6,7,8,9,10,11,12,13,14,15-decahydro-1H-cyclopenta[a]phenanthren-3(2H)-one], in assay [1] (setting [3]), the IC50 is > 1000 nM. In addition, the inhibition at 0.001 µM in assay [2] (setting [4]) was 10 to 50%.

A word on the IC50: it is the point on the concentration scale where inhibition reaches its midpoint. A word on the inhibition: it is the relative decrease from the control value, in per cent.
